Results from US10065990B2, “Cyclic peptide compound, and preparation method, pharmaceutical composition and use thereof” (HANGZHOU GUANYU BIO-MEDICAL CO., LTD, priority 2013, dated 2018).
Where two headings read alike, the source gives them in different places.

How the values were obtained:
[1] = biological target: T1, HDAC7 (Homo sapiens, UniProt Q8WUI4); assay: HDAC biochemical activity measurement (fluorescent substrate deacetylation);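 note: fluorogenic deacetylation assay using acetyl-lysine substrate at 20 µM, enzyme and compound incubated 30 min at 37 °C, then developer added, fluorescence read at 360/460 nm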; settings: HDAC7; 37° C. 30 minutes
T1 sequence (Q8WUI4 1-952): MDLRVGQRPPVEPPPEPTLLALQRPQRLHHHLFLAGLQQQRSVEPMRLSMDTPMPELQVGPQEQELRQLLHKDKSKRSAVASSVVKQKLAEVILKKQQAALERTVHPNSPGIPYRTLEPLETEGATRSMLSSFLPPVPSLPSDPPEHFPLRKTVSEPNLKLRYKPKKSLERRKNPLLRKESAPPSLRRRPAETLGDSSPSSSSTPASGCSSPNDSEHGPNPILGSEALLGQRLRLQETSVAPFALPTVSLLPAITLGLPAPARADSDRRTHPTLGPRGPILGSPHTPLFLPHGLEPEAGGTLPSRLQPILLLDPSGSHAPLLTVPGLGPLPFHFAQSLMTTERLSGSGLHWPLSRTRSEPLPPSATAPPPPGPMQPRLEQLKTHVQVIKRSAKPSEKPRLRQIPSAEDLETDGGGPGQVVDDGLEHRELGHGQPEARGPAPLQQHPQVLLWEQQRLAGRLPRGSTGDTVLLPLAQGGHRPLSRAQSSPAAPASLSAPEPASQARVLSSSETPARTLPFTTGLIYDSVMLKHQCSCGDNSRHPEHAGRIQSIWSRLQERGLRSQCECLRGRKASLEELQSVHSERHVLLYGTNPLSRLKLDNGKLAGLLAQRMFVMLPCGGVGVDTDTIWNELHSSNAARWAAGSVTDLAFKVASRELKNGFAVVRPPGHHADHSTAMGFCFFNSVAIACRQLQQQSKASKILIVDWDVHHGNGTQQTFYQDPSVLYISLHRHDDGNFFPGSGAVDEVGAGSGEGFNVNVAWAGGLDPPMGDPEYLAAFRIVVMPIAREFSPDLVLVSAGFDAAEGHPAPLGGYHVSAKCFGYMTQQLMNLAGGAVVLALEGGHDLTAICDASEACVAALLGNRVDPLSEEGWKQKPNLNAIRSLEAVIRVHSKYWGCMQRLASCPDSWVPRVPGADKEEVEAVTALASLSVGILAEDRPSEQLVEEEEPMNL

[2] = test system: A549 (human lung cancer cells); assay: MTT cancer cell growth inhibition; format: cell-based; settings: MTT, 72 hours incubation, read-out: GI50 A54
Description: (§1) MTT assay principle is yellow MTT can penetrate membrane into the cell, succinic dehydrogenase of the mitochondria in living cells can make exogenous MTT reduction of insoluble in water of blue-violet acicular formazan for crystallization and deposition in the cell, crystallization can be dissolved dimethyl sulfoxide (DMSO) solution, detected its absorbance at 490 nm/570 nm wavelength by enzyme-linked immunosorbent assay, which can reflect the number of cells.
(§2) Using DMEM+10% FBS culture medium or using 1640+10% FBS culture, respectively.
(§3) a) Cells were seeded in 96-well plates with the inoculation of 1500/well, 190 μl/hole, 37° C., 5% of CO2 incubator overnight;
(§4) b) The next day each well was added 10 μl of different drugs. The final concentration of drug was 10^−5˜10^−10M, three parallel holes; 37° C., 5% CO2 culture incubator for 72 hours incubation;
(§5) c) Per well was added 20 μl 5 mg/ml of MTT, 37° C., 5% CO2 culture incubator for 4 hours incubation;
(§6) d) The supernatant was discarded. Each well was added 100 μl of DMSO and oscillation;
(§7) e) 570 nm readings. Calculate cell viability. GI50 calculation based on the results.

[3] = test system: BGC-823 (human gastric cancer cells); assay: MTT cancer cell growth inhibition; format: cell-based; settings: MTT, 72 hours incubation, read-out: GI50 BG
Description: as §1, §2, §3, §4, §5, §6, §7

[4] = test system: Bel-7402 (human hepatoma cells); assay: MTT cancer cell growth inhibition; format: cell-based; settings: MTT, 72 hours incubation, Bel-7402 cells, read-out: GI50 Bel-7402
Description: as §1, §2, §3, §4, §5, §6, §7

[5] = test system: DU145 (human prostate cancer cells); assay: MTT cancer cell growth inhibition; format: cell-based; settings: MTT, 72 hours incubation, read-out: GI50 Du1
Description: as §1, §2, §3, §4, §5, §6, §7

[6] = test system: H1975 (non-small cell lung adenocarcinoma); assay: MTT cancer cell growth inhibition; format: cell-based; settings: MTT, 72 hours incubation, H1975 cells, read-out: GI50 H1975
Description: as §1, §2, §3, §4, §5, §6, §7

[7] = test system: HCC827 (human non-small cell lung cancer cells); assay: MTT cancer cell growth inhibition; format: cell-based; settings: MTT, 72 hours incubation, HCC827 cells, read-out: GI50 HCC827
Description: as §1, §2, §3, §4, §5, §6, §7

[8] = test system: HT1080 (human fibrosarcoma cells); assay: MTT cancer cell growth inhibition; format: cell-based; settings: MTT, 72 hours incubation, read-out: GI50 HT1
Description: as §1, §2, §3, §4, §5, §6, §7

[9] = test system: Hela (human cervical cancer cells); assay: MTT cancer cell growth inhibition; format: cell-based; settings: MTT, 72 hours incubation, read-out: GI50 Hela
Description: as §1, §2, §3, §4, §5, §6, §7

[10] = test system: Huh-7 (human hepatoma cells); assay: MTT cancer cell growth inhibition; format: cell-based; settings: MTT, 72 hours incubation, Huh-7 cells, read-out: GI50 Huh-7
Description: as §1, §2, §3, §4, §5, §6, §7

[11] = test system: K562 (human leukemia cells); assay: MTT cancer cell growth inhibition; format: cell-based; settings: MTT, 72 hours incubation, K562 cells, read-out: GI50 K562
Description: as §1, §2, §3, §4, §5, §6, §7

[12] = test system: KBM-5 (human chronic myelogenous leukemia); assay: MTT cancer cell growth inhibition; format: cell-based; settings: MTT, 72 hours incubation, KBM-5 cells, read-out: GI50 KBM-5
Description: as §1, §2, §3, §4, §5, §6, §7

[13] = test system: KBM5-T315I (human chronic myelogenous leukemia); assay: MTT cancer cell growth inhibition; format: cell-based; settings: MTT, 72 hours incubation, KBM5-T315I cells, read-out: GI50 KBM5-T315I
Description: as §1, §2, §3, §4, §5, §6, §7

[14] = test system: MCF-7 (human breast cancer cells); assay: MTT cancer cell growth inhibition; format: cell-based; settings: 72 hours incubation, read-out: GI50 MCF
Description: as §1, §2, §3, §4, §5, §6, §7

[15] = test system: MDA-MB-231 (breast cancer cells); assay: MTT cancer cell growth inhibition; format: cell-based
Description: as §1, §2, §3, §4, §5, §6, §7

[16] = test system: MOLT-4 (human acute lymphoblastic leukemia cells); assay: MTT cancer cell growth inhibition; format: cell-based; settings: MTT, 72 hours incubation, read-out: GI50 Mol
Description: as §1, §2, §3, §4, §5, §6, §7

[17] = test system: N-87 (human gastric cancer cells); assay: MTT cancer cell growth inhibition; format: cell-based; settings: MTT, 72 hours incubation, N-87 cells, read-out: GI50 N-87
Description: as §1, §2, §3, §4, §5, §6, §7

[18] = test system: PANC-1 (Pac-1, human pancreatic cancer cells); assay: MTT cancer cell growth inhibition; format: cell-based; settings: MTT, 72 hours incubation, read-out: GI50 PAN
Description: as §1, §2, §3, §4, §5, §6, §7

[19] = test system: SGC-7901 (human gastric cancer cells); assay: MTT cancer cell growth inhibition; format: cell-based; settings: MTT, 72 hours incubation, SGC-7901 cells, read-out: GI50 SGC-7901
Description: as §1, §2, §3, §4, §5, §6, §7

[20] = test system: U937 (human leukemia cells); assay: MTT cancer cell growth inhibition; format: cell-based; settings: MTT, 72 hours incubation, read-out: GI50 U93
Description: as §1, §2, §3, §4, §5, §6, §7

[21] = test system: lncap (prostate cancer cells); assay: MTT cancer cell growth inhibition; format: cell-based; settings: MTT, 72 hours incubation, read-out: GI50 lnca
Description: as §1, §2, §3, §4, §5, §6, §7

[22] = Homo sapiens, MDA-MB-231, 72 h, read-out: GI50 MDA-MB-231, MTT, 72 hours incubation, MDA-MB-231 cells

IC50 HDAC7 [1] | GI50 ([2]; Homo sapiens, A549, 72 h) [nM] | GI50 ([3]; Homo sapiens, BGC-823, 72 h) [nM] | GI50 ([4]; Homo sapiens, Bel-7402, 72 h) [nM] | GI50 ([5]; Homo sapiens, DU-145, 72 h) [nM] | GI50 ([6]; Homo sapiens, NCI-H1975, 72 h) [nM] | GI50 ([7]; Homo sapiens, HCC827, 72 h) [nM] | GI50 ([8]; Homo sapiens, HT-1080, 72 h) [nM] | GI50 ([9]; Homo sapiens, HeLa, 72 h) [nM] | GI50 ([10]; Homo sapiens, Huh-7, 72 h) [nM] | GI50 ([11]; Homo sapiens, K562, 72 h) [nM] | GI50 ([12]; Homo sapiens, KBM5, 72 h) [nM] | GI50 ([13]; Homo sapiens, 72 h) [nM] | GI50 ([14]; Homo sapiens, MCF7, 72 h) [nM] | GI50 [15, 22] [nM] | GI50 ([16]; Homo sapiens, MOLT-4, 72 h) [nM] | GI50 ([17]; Homo sapiens, 72 h) [nM] | GI50 ([18]; Homo sapiens, PANC-1, 72 h) [nM] | GI50 ([19]; Homo sapiens, SGC-7901, 72 h) [nM] | GI50 ([20]; Homo sapiens, U-937, 72 h) [nM] | Structure (SMILES) | other results
no activity | 40 | 20 | 61 | 20 | 73 | 65 | 40 | 60 | 48 | 19 | 72 | 54 | 20 | 57 | 30 | 27 | 40 | 37 | 20 | C/C=C1\NC(=O)c2nc(F)cc(n2)CNC(=O)C[C@@H](/C=C/CCSC(C)=O)OC(=O)[C@H](C(C)C)NC1=O [Compound 96] | GI50 ([21]; Homo sapiens, LNCaP, 72 h): 30 nM
no activity | – | – | 95 | – | 32 | 41 | – | – | 53 | 33 | 32 | 45 | – | 38 | – | 23 | – | 65 | – | C/C=C1\NC(=O)c2nc(ccc2SCC)CNC(=O)C[C@@H](/C=C/CCSC(=O)CCCCCCC)OC(=O)[C@H](C(C)C)NC1=O [Compound 247] | GI50 ([2]; Homo sapiens, A549, 72 h, A549 cells): 60 nM; GI50 ([3]; Homo sapiens, BGC-823, 72 h, BGC-823 cells): 10 nM; GI50 ([5]; Homo sapiens, DU-145, 72 h, DU145 cells): 20 nM; GI50 ([8]; Homo sapiens, HT-1080, 72 h, HT1080 cells): 60 nM; GI50 ([9]; Homo sapiens, HeLa, 72 h, Hela cells): 50 nM; GI50 ([14]; Homo sapiens, MCF7, 72 h, MCF-7 cells): 50 nM; GI50 ([16]; Homo sapiens, MOLT-4, 72 h, MOLT-4 cells): 30 nM; GI50 ([18]; Homo sapiens, PANC-1, 72 h, PANC-1 cells): 50 nM; GI50 ([20]; Homo sapiens, U-937, 72 h, U937 cells): 70 nM; GI50 ([21]; Homo sapiens, LNCaP, 72 h, lncap cells): 20 nM
no activity | – | – | – | – | – | – | – | – | – | – | – | – | – | – | – | – | – | – | – | C=C1NC(=O)c2cc(F)cc(n2)CNC(=O)C[C@@H](/C=C/CCS)OC(=O)[C@H](C(C)C)NC1=O [Compound 133] | GI50 [2]: 50 nM; GI50 [3]: 50 nM; GI50 [4]: 32 nM; GI50 [5]: 70 nM; GI50 [6]: 31 nM; GI50 [7]: 36 nM; GI50 [8]: 80 nM; GI50 [9]: 20 nM; GI50 [10]: 33 nM; GI50 [11]: 16 nM; GI50 [12]: 36 nM; GI50 [13]: 16 nM; GI50 [14]: 70 nM; GI50 ([15]; read-out: GI50 MDA-MB-231, MTT, 72 hours incubation, MDA-MB-231 cells): 35 nM; GI50 [16]: 80 nM; GI50 [17]: 66 nM; GI50 [18]: 50 nM; GI50 [19]: 35 nM; GI50 [20]: 50 nM; GI50 [21]: 80 nM
no activity | 30 | 40 | 84 | 30 | 34 | 84 | 80 | 70 | 33 | 39 | 77 | 64 | 60 | 33 | 30 | 49 | 80 | 34 | 30 | C/C=C1\NC(=O)c2ccc(F)c(n2)CNC(=O)C[C@@H](/C=C/CCSC(=O)CCCCC)OC(=O)[C@H](C(C)C)NC1=O [Example 38] | GI50 ([21]; Homo sapiens, LNCaP, 72 h): 30 nM
